Test results published in PubChem BioAssay (NCI).
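In this assay, cells in 96-well plates receive the compound at five concentrations for 48 hours. Endpoints are linearly interpolated between the surrounding concentrations. GI50 marks 50% less growth. TGI: concentration producing complete growth inhibition.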

What was measured:
Test in all cases: NCI-60 cell line screen, 48 h
CAKI-1 renal = test system: CAKI-1 renal
HS 578T breast = test system: HS 578T breast
LOX IMVI melanoma = test system: LOX IMVI melanoma
M14 melanoma = test system: M14 melanoma
MDA-MB-435 = test system: MDA-MB-435
NCI-H23 lung = test system: NCI-H23 lung
NCI/ADR-RES ovarian = test system: NCI/ADR-RES ovarian
SF-268 CNS = test system: SF-268 CNS
SNB-19 CNS = test system: SNB-19 CNS
TK-10 renal = test system: TK-10 renal

Row | Structure (SMILES) | GI50 (CAKI-1 renal) | TGI (CAKI-1 renal) | GI50 (HS 578T breast) | TGI (HS 578T breast) | GI50 (LOX IMVI melanoma) | TGI (LOX IMVI melanoma) | GI50 (M14 melanoma) | TGI (M14 melanoma) | GI50 (MDA-MB-435) | TGI (MDA-MB-435) | GI50 (NCI-H23 lung) | TGI (NCI-H23 lung) | GI50 (NCI/ADR-RES ovarian) | TGI (NCI/ADR-RES ovarian) | GI50 (SF-268 CNS) | TGI (SF-268 CNS) | GI50 (SNB-19 CNS) | TGI (SNB-19 CNS) | GI50 (TK-10 renal) | TGI (TK-10 renal)
1 | COc1ccccc1OCC(=O)Nc1sc2c(c1C(N)=O)CCC2 | > 100 µM | > 100 µM | > 100 µM | > 100 µM | > 100 µM | > 100 µM | > 100 µM | > 100 µM | > 100 µM | > 100 µM | > 100 µM | > 100 µM | > 100 µM | > 100 µM | > 100 µM | > 100 µM | > 100 µM | > 100 µM | > 100 µM | > 100 µM
2 | COc1cccc(C2c3cc4c(cc3OC(C)(O)C2C)OCO4)c1O (stereo not given) | – | 15.7 µM | – | 9.94 µM | – | 50.4 µM | – | 24.2 µM | – | > 100 µM | – | 12.4 µM | – | 6.4 µM | – | > 100 µM | – | > 100 µM | – | 51 µM
3 | COc1cc(C(=O)c2ccc3c(c2)OCO3)cc(OC)c1OC | 1.88 µM | > 27.4 µM | 2.54 µM | > 26.9 µM | 6.69 µM | > 100 µM | 1.2 µM | > 100 µM | 0.2 µM | 0.502 µM | 4.93 µM | > 100 µM | 0.987 µM | > 100 µM | 5.56 µM | > 100 µM | 5.07 µM | > 100 µM | 4.44 µM | > 100 µM
4 | CC[C@H](C)[C@H]1NC(=O)[C@@H](N[C@](C)(O)[C@@H](N)CC(C)C)[C@@H](C)OC(=O)[C@H](Cc2ccc(OC)cc2)N(C)C(=O)[C@@H]2CCCN2C(=O)[C@H](CC(C)C)NC(=O)[C@@H](C)C(=O)[C@H](C(C)C)OC(=O)C[C@@H]1O | 0.241 µM | 2.59 µM | 0.0164 µM | 0.467 µM | 0.012 µM | 0.209 µM | 0.0215 µM | 0.289 µM | 0.0151 µM | 0.397 µM | 0.0122 µM | 0.146 µM | 2.18 µM | 46.5 µM | 0.0132 µM | 0.348 µM | 0.0137 µM | 0.461 µM | 0.0397 µM | 0.557 µM
5 | COc1cc(-c2nc(Nc3nc4ccccc4[nH]3)nc(N)c2C#N)cc(OC)c1OC | 6.04 µM | > 60.6 µM | 0.33 µM | > 100 µM | 6.37 µM | 41.4 µM | 2.34 µM | 36.5 µM | 0.0886 µM | 16.7 µM | 12.2 µM | 40.2 µM | > 100 µM | > 100 µM | > 53.2 µM | > 100 µM | 21 µM | > 100 µM | 30.7 µM | > 100 µM
